We go through ten compounds from patent publication US10927107B2, “Phenyl [a]indole[2,3-g]quinolizine compounds, preparation method therefor, pharmaceutical composition, and applications thereof” (Shanghai Institute of Materia Medica, Chinese Academy of …, priority 2016, dated 2021).

One data set has as its system HepG2 cells. Put plainly: In vitro lipid-lowering activity: DiI-LDL uptake in HepG2 cells. To be noted: Homo sapiens, test compound 5 uM, 24 h, DiI-LDL 20 ug/ml, 3 h, FLU of sample group/FLU of blank group x100%, read-out: LDL uptake rate. It counts as cell-based. As for the experimental part: HepG2 cells were inoculated in 24-well plates, cultured in DMEM containing 10% FBS for 24 h or 48 h, and then transferred to DMEM containing 2% defatted serum and cultivated for 24 h. The old culture solution was discarded and replaced with new 2% defatted serum DMEM, and a test compound (the working concentration of which is 5 uM, triplicate for each sample) was added and incubated for 24 h. The old culture solution was abandoned and DMEM containing DiI-LDL (20 ug/ml) was added (300 ul/per 24 wells), incubated for 3 h. DMEM containing DiI-LDL was discarded, and cells were rinsed twice with PBS containing 0.4% BSA, and 3 times with PBS to remove excess DiI-LDL. Isopropanol was added (500 ul/per well of a 24-well plate), and was kept in darkness. After shaken for 20 minutes, 200 ul of supernatant was sucked to a black fluorescent plate, and fluorescence intensity (FLU) was detected at excitation light 520 nm and emission light 578 nm. The experimental results were calculated: LDL uptake rate=(FLU value of sample group to be tested/FLU value of blank group)×100%.

Data set [1] has as its target T1, α1A-adrenergic receptor (α1A-AR) (Homo sapiens, UniProt P35348).
T1 construct: expressed in transfected cells; host or cells: HEK293
T1 sequence (P35348 1-466): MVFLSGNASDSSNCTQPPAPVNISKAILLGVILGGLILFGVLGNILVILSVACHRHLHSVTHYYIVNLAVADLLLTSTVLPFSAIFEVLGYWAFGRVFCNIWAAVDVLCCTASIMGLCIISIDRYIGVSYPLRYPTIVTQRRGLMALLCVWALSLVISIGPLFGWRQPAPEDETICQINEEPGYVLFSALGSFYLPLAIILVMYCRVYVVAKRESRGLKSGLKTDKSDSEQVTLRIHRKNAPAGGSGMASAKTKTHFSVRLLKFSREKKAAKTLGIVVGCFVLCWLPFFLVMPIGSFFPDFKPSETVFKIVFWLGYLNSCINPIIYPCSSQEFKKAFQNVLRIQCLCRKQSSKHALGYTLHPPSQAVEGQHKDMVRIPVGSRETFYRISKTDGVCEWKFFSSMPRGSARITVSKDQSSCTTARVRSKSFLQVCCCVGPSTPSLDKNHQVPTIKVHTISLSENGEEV
Put plainly: Antagonistic activity on α1A-AR: calcium fluorescence in HEK293 cells stimulated with phenylephrine. Type of data set: cell-based. Here is the method:
HEK293 cells stably expressing α1A-adrenergic receptor (α1A-AR) and G protein […] were seeded in 96-well plates. After 24 hours of culture, the medium was removed, and 40 μL of Hank's balanced salt solution (HBSS: containing 5.4 mM KCl, 0.3 mM Na2HPO4, 0.4 mM KH2PO4, 4.2 mM NaHCO3, 1.3 mM CaCl2, 0.5 mM MgCl2, 0.6 mM MgSO4, 137 mM NaCl, 5.6 mM D-glucose and 250 μM sulfinpyridone, pH 7.4) containing 2 μM of MFluo-4AM was added to each well, and incubated for 45 minutes in an incubator. The dye was aspirated and 50 μL of HBSS containing a test compound or 1% DMSO (negative control) was added and incubated for 10 minutes at room temperature, and then read with Flex Station 3 microplate reader. At the specified time point, 25 μL of agonist phenylephrine (final concentration 30 nM) will be automatically added by the detector into the reaction system, and simultaneously stimulated with 485 nm light, and the change in intensity of fluorescence caused by the change in the intracellular calcium ion concentration was detected at 525 nm. […] The response rate of different doses of the same drug was analyzed by GraphPad Prism software to obtain a dose-response curve and the IC50 value was measured. Each experiment was performed in […].

Data set [2] concerns Syrian golden hamsters (high-fat diet, hyperlipidemia model). The data set is described as follows: In vivo lipid-lowering activity in high-fat diet golden hamsters. Conditions: for CHOL / HDL-C / LDL-C / TG: high-fat diet, serum; for contents of cholesterol (CHOL), triglyceride (TG) and low density lipoprotein (LDL-C) in the blood: hyperlipidemia model. Details: species or system Syrian golden hamster. Here is the method: After adaptively feeding Syrian golden hamsters (male, 80-100 g) for a week, all hamsters were fed with high-fat diet. Two weeks later, blood was collected from the orbital venous plexus, serum was separated, and levels of total cholesterol (TC), triglyceride (TG), high-density lipoprotein (HDL-C) and low-density lipoprotein (LDL-C) in serum were measured. They were evenly grouped according to blood lipid levels into […]: model control group, A1 intragastric administration group, A1 intraperitoneal administration group, A5 intragastric administration group, A5 intraperitoneal administration group, A55 intragastric administration group, A55 intraperitoneal administration group, B5 intragastric administration group, B5 intraperitoneal administration group, and the animals in each group were continued to be administered with high fat diet. […] […] Blood lipid levels and body weights were measured every 10 days. After three weeks, the animals were sacrificed and the liver was stored in a −80° C. refrigerator.

A further data set is described as follows: Rat pharmacokinetics. It counts as in vivo. Further details: AUC(0-t) / AUC(0-inf): concentration or dose not given beside the values. To be noted: plasma; for AUC(0-inf): read-out: AUCINF—obs; for clearance: read-out: CL—obs (converted); for MRT inf: read-out: MRTINF—obs; for Vd: read-out: Vss—obs. Here is the method:
A1 10 μL of a plasma sample was taken in a centrifuge tube and 100 μL of methanol:acetonitrile (1:1, v/v) was added, vortexed for 1 min, centrifugated (14000 rpm) for 5 min, and 50 μL supernatant was taken, mixed with equal volume of water, and analysised after vortex mixing. The linear range of A1 is: 0.1-300 ng/mL for oral administration and 1-3000 ng/mL for intravenous injection.
A55 10 μL of a plasma sample was taken in a centrifuge tube and 100 μL of methanol:acetonitrile (1:1, v/v) was added, vortexed for 1 min, centrifugated (14000 rpm) for 5 min, and 50 μL supernatant was taken, mixed with equal volume of water, and analysised after vortex mixing. The linear range of A55 is: 0.1-300 ng/mL for oral administration and 0.3-3000 ng/mL for intravenous injection.

Setting [3] is: HEK293 cells expressing α1A-AR, agonist phenylephrine 30 nM, calcium fluorescence, read-out: α1A-AR/IC50.
The mark [4] stands for this setting: abdominal (intraperitoneal) 30 mg/kg once a day for three weeks.
The mark [5] stands for this setting: oral (intragastric) 30 mg/kg once a day for three weeks.

Where two headings read alike, the source gives them in different places.

Consider `COc1ccc2[nH]c3c(c2c1)CC1c2cc(OC)c(OCc4ccc(F)cc4)cc2CCN1C3` (centres unmarked) [Example C49, 3-((4-Fluorobenzyl)oxo)-2,12-dimethoxy-5,6,8,9,14,14a-hexahydroindole[3′,2′:4,5]pyridine[2,1-a]isoquinoline], for which the activity at 5 µM with HepG2 cells was 194%. For the same compound, the IC50 in data set [1] (setting [3]) is 6.58 µM; in data set [1] (statement in text on Table 2, read-out: antagonistic activity to α1A-AR) it was below 10 µM.
By AUC(0-t) is commonly meant exposure summed from dosing to a finite time, without extrapolation to infinity. Broadly, the Cmax is the peak of the concentration-time curve. As usually defined, the Tmax is the time at which the peak concentration occurs. The term half-life denotes how long it takes for the measured level to halve. What is called bioavailability is dose-corrected exposure relative to a reference, in per cent. Turning to `COc1ccc2c(c1)c1c(n2CO)CN2CCc3cc(OC)c(OCc4ccccc4)cc3C2C1` (centres unmarked) [Example A1, (2-(Benzyloxy)-3,12-dimethoxy-5,6,14,14a-tetrahydroindolo[3′,2′:4,5]pyridine[2,1-a]isoquinoline-9(8H)-yl)methanol], in data set [2] (setting [4]), the CHOL is 9.75 mmol/L, the HDL-C is listed as 1.63 mmol/L, the LDL-C stood at 5.25 mmol/L and the TG came to 8.16 mmol/L. In data set [2] (setting [5]), this compound gave a CHOL of 27.93 mmol/L, an HDL-C of 2.56 mmol/L, an LDL-C of 13.64 mmol/L and a TG of 28.61 mmol/L. Also, in data set [2], the “contents of cholesterol (CHOL), triglyceride (TG) and low density lipoprotein (LDL-C) in the blood” value (from here on “contents of cholesterol (CHOL)”) is “significantly reduced”. Moreover, in “Rat pharmacokinetics” (iv), the area under the curve AUC(0-t) was found to be 1910 ng·h/mL, the concentration peaked (Cmax) at 1110 ng/mL, the Tmax amounted to 0.083 h and the half-life was 2.58 h. Also, in the data set “Rat pharmacokinetics” (iv), the AUC(0-inf) worked out at 1980 ng·h/mL, the clearance was 84.2 mL/min/kg, the MRT inf is 3.3 h and the Vd was found to be 16.6 L/kg. Besides, in “Rat pharmacokinetics” (po), the AUC(0-t) stood at 776 ng·h/mL, the concentration peaked (Cmax) at 159 ng/mL, the Tmax amounted to 6 h and the bioavailability was 20.3%. For the same compound, the activity at 5 µM with HepG2 cells is 148%.
On to `COc1ccc2c(c1)c1c(n2CO)CN2CCc3cc(OCc4ccc(C)cc4)c(OC)cc3C2C1` (centres unmarked) [Example A69, (2,12-Dimethoxy-3-((4-methylbenzyl)oxy)-5,6,14,14a-tetrahydroindolo[3′,2′:4,5]pyridine[2,1-a]isoquinoline-9(8H)-yl)methanol], for which the activity at 5 µM in the data set on HepG2 cells was 140%. For the same compound, the IC50 in data set [1] (setting [3]) was above 100 µM.
For the compound `COc1ccc2c(c1)c1c(n2CO)CN2CCc3cc(OCc4ccccc4)c(OC)cc3C2C1` (centres unmarked) [Example A55, (3-(Benzyloxy)-2,12-dimethoxy-5,6,14,14a-tetrahydroindolo[3′,2′:4,5]pyridine[2,1-a]isoquinoline-9(8H)-yl)methanol], in data set [2] (setting [4]), the CHOL was found to be 17.86 mmol/L, the HDL-C worked out at 2.98 mmol/L, the LDL-C was 9.39 mmol/L and the TG was found to be 19.77 mmol/L. In data set [2] (setting [5]), this compound returned a CHOL of 11.81 mmol/L, an HDL-C of 3.88 mmol/L, an LDL-C of 5.56 mmol/L and a TG of 6.74 mmol/L. The “contents of cholesterol (CHOL)” value in data set [2] was “significantly reduced”. Also, in the data set “Rat pharmacokinetics” (iv), the AUC(0-t) was 2720 ng·h/mL, the Cmax came out at 2740 ng/mL, the time of peak concentration (Tmax) is 0.083 h and the half-life is 1.88 h. For the same compound, in “Rat pharmacokinetics” (iv), the AUC(0-inf) turned out to be 2730 ng·h/mL, the clearance was 61 mL/min/kg, the MRT inf came to 1.7 h and the Vd amounted to 6.41 L/kg. Further, in “Rat pharmacokinetics” (po), the AUC(0-t) stood at 334 ng·h/mL, the Cmax turned out to be 62 ng/mL, the Tmax turned out to be 4 h and the bioavailability was found to be 6.2%. Further, in “Rat pharmacokinetics” (po), the half-life was 0.71 h, the AUC(0-inf) was found to be 335 ng·h/mL and the MRT inf worked out at 4.8 h. The activity at 5 µM with HepG2 cells was determined as 194%.
As to `COc1ccc2c(c1)c1c(n2CO)CN2CCc3cc(OCc4ccccc4F)c(OC)cc3C2C1` (centres unmarked) [Example A63, (3-((2-fluorobenzyl)oxy)-2,12-dimethoxy-5,6,14,14a-tetrahydroindolo[3′,2′:4,5]pyridine[2,1-a]isoquinoline-9(8H)-yl)methanol], the activity at 5 µM with HepG2 cells was determined as 138%. Also, the IC50 in data set [1] (setting [3]) came out at 57.7 µM.
In data set [2] (setting [4]), `COc1ccc2c(c1)c1c(n2CO)CN2CCc3cc(OC)c(OCc4ccc(F)cc4)cc3C2C1` (centres unmarked) [Example A5, (2-((4-fluorobenzyl)oxy)-3,12-dimethoxy-5,6,14,14a-tetrahydroindolo[3′,2′:4,5]pyridine[2,1-a]isoquinoline-9(8H)-yl)methanol] displayed a CHOL of 11.36 mmol/L, an HDL-C of 1.77 mmol/L, an LDL-C of 6.16 mmol/L and a TG of 13.26 mmol/L. In addition, in data set [2] (setting [5]), the CHOL is given as 15.32 mmol/L, the HDL-C was 4.01 mmol/L, the LDL-C came to 7.44 mmol/L and the TG is on record as 15.46 mmol/L. The “contents of cholesterol (CHOL)” value in data set [2] was “significantly reduced”. Moreover, the activity at 5 µM with HepG2 cells was 156%.
As to `COc1cc2c(cc1OCc1ccccc1F)CCN1Cc3[nH]c4ccccc4c3CC21` (centres unmarked) [Example C54, 3-((2-fluorobenzyl)oxo)-2-methoxy-5,6,8,9,14,14a-hexahydroindole[3′,2′:4,5]pyridine[2,1-a]isoquinoline], the activity at 5 µM in the data set with HepG2 cells stood at 110%.
Regarding `COc1ccc2[nH]c3c(c2c1)CC1c2cc(OCc4ccccc4F)c(OC)cc2CCN1C3` (centres unmarked) [Example C9, 2-((2-Fluorobenzyl)oxo)-3,12-dimethoxy-5,6,8,9,14,14a-hexahydroindole[3′,2′:4,5]pyridine[2,1-a]isoquinoline], the TC in data set [2] (Dose 30, oral) stood at 36.87 ± 23.13 mmol/L.
`COc1cc2c(cc1OCc1ccc(C)cc1)C1Cc3c([nH]c4ccccc34)C(c3ccc(F)cc3)N1CC2` (centres unmarked) [Example B16, 8-(4-Fluorophenyl)-3-methoxy-2-((4-methylbenzyl)oxo)-5,6,8,9,14,14a-hexahydroindolo[3′,2′:4,5]pyridine[2,1-a]isoquinoline]: in the data set with HepG2 cells, the activity at 5 µM was 107%.
The same measure, in the same setting: to `COc1ccc2[nH]c3c(c2c1)CC1c2cc(OC)c(OCc4ccc(F)cc4)cc2CCN1C3c1ccc(F)cc1` (centres unmarked) [Example B59, 3-((4-fluorobenzyl)oxo)-8-(4-fluorophenyl)-2,12-dimethoxy-5,6,8,9,14,14a-hexahydroindole[3′,2′:4,5]pyridine[2,1-a]isoquinoline] belongs 109%.
